The text below walks through data of ChEMBL document CHEMBL1138055, “Tetraoxane antimalarials and their reaction with Fe(II)” (J Med Chem, 2006).

Some results are limits rather than exact numbers.

In assay [1] the test system is Plasmodium falciparum.
Description: (§1) Antimalarial activity against Plasmodium falciparum W2
Assay [2] relates to Plasmodium falciparum. The source holds these as a separate data set.
Description: (§2) Antimalarial activity against Plasmodium falciparum TM91C235
Another assay has as its system UO-31. Description: Antiproliferative activity against human UO31 cell line after 48 hrs. Particulars: Homo sapiens, UO-31, 48 h; for CC50: read-out: LC50 (the source's name). It is filed as functional.
In assay [3] the test system is Plasmodium falciparum. The source holds these as a separate data set.
Description: (§3) Antimalarial activity against Plasmodium falciparum D6
The subject of a further assay is LOX IMVI. As to the kind of experiment: Antiproliferative activity against human LOX IMVI cell line after 48 hrs. It is filed as functional.
For a further assay, the system named is IGROV-1. Description: Antiproliferative activity against human IGROV1 cell line after 48 hrs. It is filed as functional. As to conditions: Homo sapiens, IGROV-1, 48 h; for CC50: read-out: LC50 (the source's name).
The test system of assay [4] is Plasmodium falciparum. As to the kind of experiment: microbe, parasite or virus in culture. As to conditions: W2.
Description: as §1
The test system of assay [5] is Plasmodium falciparum. As to the kind of experiment: microbe, parasite or virus in culture. Particulars: TM91C235.
Description: as §2
In assay [6] the test system is Plasmodium falciparum. Description: microbe, parasite or virus in culture. Particulars: D6.
Description: as §3
The subject of another assay is COLO 205. As to the kind of experiment: Antiproliferative activity against human COLO 205 cell line after 48 hrs. It is filed as functional. Particulars: Homo sapiens, COLO 205, 48 h.
Assay [7] relates to Mus musculus. As to the kind of experiment: Effect on survival of CD1 mice (Mus musculus) infected with Plasmodium berghei KBG173 at 200 mg/kg/day, perorally. It is filed as functional. Particulars: route oral.
The next assay has as its system HOP-62. Description: Antiproliferative activity against human HOP62 cell line after 48 hrs. It is filed as functional. Particulars: Homo sapiens, HOP-62, 48 h.
For a further assay, the system named is EKVX. Description: Antiproliferative activity against human EKVX cell line after 48 hrs. It is filed as functional. As to conditions: Homo sapiens, EKVX, 48 h.
Assay [8] relates to Mus musculus. As to the kind of experiment: Effect on survival of CD1 mice (Mus musculus) infected with Plasmodium berghei KBG173 at 50 mg/kg/day, perorally. It is filed as functional. As to conditions: route oral.
Assay [9] concerns Mus musculus. Description: Effect on survival of CD1 mice (Mus musculus) infected with Plasmodium berghei KBG173 at 600 mg/kg/day, perorally. It is filed as functional, organism-based. Set-up: route oral. As to conditions: route oral.
The mark [10] stands for this setting: read-out: LC50 (the source's name).

One may read the IC50 as the concentration needed to halve the response being measured. Low readings indicate greater potency, high ones weaker potency. One may read the IC90 as the concentration needed for an effect of 90%. Low readings indicate greater potency, high ones weaker potency. A word on the GI50: it is the concentration giving 50% growth inhibition. The term TGI denotes the concentration at which net growth stops. A high value points to lower sensitivity of the cells. In the case of `CCCOC(=O)CC[C@@H](C)[C@H]1CC[C@H]2[C@@H]3[C@H](OC(C)=O)C[C@@H]4CC5(CC[C@]4(C)[C@H]3C[C@H](OC(C)=O)[C@]12C)OOC1(CCC(C(=O)OCCC)CC1)OO5` (stereo in doubt; 5a), the IC50 in the assay with Plasmodium falciparum [1] amounted to 9 nM; in the assay with Plasmodium falciparum [2], 8.8 nM; with Plasmodium falciparum [3] it was 6.7 nM. Also, the IC90 came out at 17.4 nM in the assay on Plasmodium falciparum [1], 18 nM with Plasmodium falciparum [2] and 9.4 nM in the assay on Plasmodium falciparum [3]. The GI50 stood at 1150 nM with UO-31, 1090 nM in the assay with LOX IMVI and 1990 nM with IGROV-1. The TGI in the assay on UO-31 is 2440 nM; in the assay with LOX IMVI, 2740 nM; with IGROV-1, 6160 nM. Besides, the CC50 with UO-31 is 5190 nM; in the assay with LOX IMVI (setting [10]), 6910 nM; with IGROV-1 it was > 100000 nM.
Take `CCCOC(=O)CC[C@@H](C)[C@H]1CC[C@H]2[C@@H]3[C@H](OC(C)=O)C[C@@H]4CC5(CC[C@]4(C)[C@H]3C[C@H](OC(C)=O)[C@]12C)OOC1(CCC(C(=O)OCCC)CC1)OO5` (stereo in doubt; 5b): the IC50 came out at 41.4 nM in the assay with Plasmodium falciparum [1], 42.2 nM with Plasmodium falciparum [2] and 30.3 nM in the assay with Plasmodium falciparum [3]. The IC90 in the assay with Plasmodium falciparum [1] worked out at 83.5 nM; in the assay on Plasmodium falciparum [2] it was 75.8 nM; with Plasmodium falciparum [3] it was 47.4 nM.
With `CC(=O)O[C@H]1C[C@H]2[C@@H]([C@H](OC(C)=O)C[C@@H]3CC4(CC[C@@]32C)OOC2(CCC(C(=O)O)CC2)OO4)[C@@H]2CC[C@H]([C@H](C)CCC(=O)O)[C@@]12C` (stereo in doubt; 6a), in the assay with Plasmodium falciparum [1], the midpoint of inhibition, the IC50, lay at 135 nM and it took 156 nM to reach the 90% level (IC90). In addition, in the assay on Plasmodium falciparum [2], it took 135 nM to reach half-maximal inhibition (IC50) and the IC90 came to 257 nM. In the assay on UO-31, halving of growth (GI50) required 1740 nM, total growth inhibition (TGI) required 3650 nM and the CC50 was found to be 7660 nM. In the assay with Plasmodium falciparum [3], this molecule yielded an IC50 of 98.3 nM and an IC90 of 147 nM.
`CC(=O)O[C@H]1C[C@H]2[C@@H]([C@H](OC(C)=O)C[C@@H]3CC4(CC[C@@]32C)OOC2(CCC(C(=O)O)CC2)OO4)[C@@H]2CC[C@H]([C@H](C)CCC(=O)O)[C@@]12C` (stereo in doubt; 6b): the IC90 in the assay with Plasmodium falciparum [4], in the assay on Plasmodium falciparum [5] and in the assay with Plasmodium falciparum [3] was > 300 nM each time. Moreover, the IC50 in the assay on Plasmodium falciparum [1], in the assay on Plasmodium falciparum [2] and in the assay on Plasmodium falciparum [3] was > 300 nM throughout.
As to `CC(=O)O[C@H]1C[C@H]2[C@@H]([C@H](OC(C)=O)C[C@@H]3CC4(CC[C@@]32C)OOC2(CCC(C(N)=O)CC2)OO4)[C@@H]2CC[C@H]([C@H](C)CCC(N)=O)[C@@]12C` (stereo in doubt; 8), the IC50 in the assay on Plasmodium falciparum [1] worked out at 121 nM; in the assay on Plasmodium falciparum [2] it was 168 nM; with Plasmodium falciparum [3], 119 nM. Besides, the IC90 in the assay with Plasmodium falciparum [1] was determined as 265 nM; in the assay on Plasmodium falciparum [2], 249 nM; with Plasmodium falciparum [3], 196 nM.
Regarding `CCCNC(=O)CC[C@@H](C)[C@H]1CC[C@H]2[C@@H]3[C@H](OC(C)=O)C[C@@H]4CC5(CC[C@]4(C)[C@H]3C[C@H](OC(C)=O)[C@]12C)OOC1(CCC(C(=O)NCCC)CC1)OO5` (stereo in doubt; 9), the IC50 in the assay on Plasmodium falciparum [1] was found to be 18.1 nM; in the assay with Plasmodium falciparum [2], 14.9 nM; in the assay with Plasmodium falciparum [3], 10.5 nM. In addition, the IC90 with Plasmodium falciparum [1] is 39.6 nM; in the assay with Plasmodium falciparum [2], 63.2 nM; in the assay with Plasmodium falciparum [3], 17.8 nM.
In the case of `CCCNC(=O)CC[C@@H](C)[C@H]1CC[C@H]2[C@@H]3[C@H](OC(C)=O)C[C@@H]4CC5(CC[C@]4(C)[C@H]3C[C@H](OC(C)=O)[C@]12C)OOC1(CCC(C(=O)NCCC)CC1)OO5` (stereo in doubt; 10), the results for the IC90 in the assay on Plasmodium falciparum [4], in the assay with Plasmodium falciparum [2] and in the assay with Plasmodium falciparum [3] were 78 nM, 127 nM and 56 nM, respectively. Also, the figures for the IC50 with Plasmodium falciparum [1], with Plasmodium falciparum [2] and in the assay with Plasmodium falciparum [3] were 58.3 nM, 52.3 nM and 38.5 nM, respectively.
Regarding `CC(=O)O[C@H]1C[C@H]2[C@@H]([C@H](OC(C)=O)C[C@@H]3CC4(CC[C@@]32C)OOC2(CCC(C(=O)NCCN(C)C)CC2)OO4)[C@@H]2CC[C@H]([C@H](C)CCC(=O)NCCN(C)C)[C@@]12C` (stereo in doubt; 12), the IC50 with Plasmodium falciparum [4] was 132 nM; in the assay on Plasmodium falciparum [5], 145 nM; in the assay on Plasmodium falciparum [6], 128 nM. Also, the IC90 came out at 167 nM with Plasmodium falciparum [4], 160 nM with Plasmodium falciparum [5] and 187 nM with Plasmodium falciparum [6].
On to `CC(=O)O[C@H]1C[C@H]2[C@@H]([C@H](OC(C)=O)C[C@@H]3CC4(CC[C@@]32C)OOC2(CCC(C(=O)Nc3ccccc3)CC2)OO4)[C@@H]2CC[C@H]([C@H](C)CCC(=O)Nc3ccccc3)[C@@]12C` (stereo in doubt; 14), for which the IC50 was found to be 52.9 nM in the assay with Plasmodium falciparum [1], 42.8 nM in the assay on Plasmodium falciparum [2] and 29.6 nM with Plasmodium falciparum [3]. In addition, the concentration for an effect of 90% (IC90) in the assay on Plasmodium falciparum [1] was found to be 74.2 nM; in the assay with Plasmodium falciparum [2], 86.6 nM; in the assay with Plasmodium falciparum [3] it was 44.5 nM.
As usually defined, the LC50 is the concentration lethal to half of the exposed cells or organisms. A lower LC50 goes with greater toxicity. As to `CC(=O)O[C@H]1C[C@H]2[C@@H]([C@H](OC(C)=O)C[C@@H]3CC4(CC[C@@]32C)OOC2(CCC(C)CC2)OO4)[C@@H]2CC[C@H]([C@H](C)CCC(=O)O)[C@@]12C` (stereo in doubt; 18), the GI50 with COLO 205 was found to be 1980 nM; in the assay on HOP-62 it was 1640 nM; in the assay on EKVX, 1450 nM; in the assay with UO-31 it was 1500 nM; in the assay with IGROV-1, 1400 nM. The TGI in the assay on COLO 205 turned out to be 4400 nM; in the assay with HOP-62 it was 3490 nM; with EKVX, 2900 nM; with UO-31, 3000 nM; in the assay on IGROV-1, 2760 nM. Further, the CC50 with COLO 205 (setting [10]) came out at 9780 nM; in the assay with HOP-62 (setting [10]), 7400 nM; in the assay with UO-31 it was 6020 nM; in the assay with IGROV-1 it was 5430 nM. Besides, the results for the Activity in the assay on Mus musculus [7], in the assay with Mus musculus [8] and in the assay on Mus musculus [9] were 22.6 days, 10.2 days and 20 days, respectively. In the assay with EKVX, this molecule showed an LC50 of 5780 nM. The IC50 came to 17.7 nM in the assay on Plasmodium falciparum [1] and 31.1 nM in the assay with Plasmodium falciparum [3].
Regarding `C[C@@H]1CC[C@H]2[C@@H](C)C(=O)O[C@@H]3O[C@@]4(C)CC[C@@H]1[C@]32OO4` [ARTEMISININ], the IC50 is 6.7 nM in the assay with Plasmodium falciparum [4], 13 nM in the assay on Plasmodium falciparum [5] and 9 nM in the assay with Plasmodium falciparum [6]. Moreover, the values for the IC90 with Plasmodium falciparum [4], with Plasmodium falciparum [5] and in the assay with Plasmodium falciparum [6] were 11.5 nM, 17.4 nM and 12.8 nM, respectively.
Turning to `O[C@@H](c1cc(C(F)(F)F)nc2c(C(F)(F)F)cccc12)[C@H]1CCCCN1` [MEFLOQUINE], the IC50 in the assay on Plasmodium falciparum [4] worked out at 3.1 nM; with Plasmodium falciparum [5], 16.4 nM; in the assay with Plasmodium falciparum [6], 10.5 nM. The IC90 in the assay on Plasmodium falciparum [4] turned out to be 8.4 nM; in the assay on Plasmodium falciparum [5], 65.7 nM; in the assay with Plasmodium falciparum [6], 21.7 nM.
